Values quoted from earlier work, collected in patent publication US20060281715A1, “Phosphates of secondary alcohols” (priority 2003, published 2006).

Assays:
noradrenaline uptake = conditions: enantiomers of venlafaxine
seratonin uptake = conditions: enantiomers of venlafaxine
[1] = major metabolite
[2] = oral administration

In the case of `COc1ccc(C(CN(C)C)C2(O)CCCCC2)cc1` (single isomer, unassigned) [R-enantiomer], the “potency as inhibitor of noradrenaline uptake, compared with other enantiomer” value (noradrenaline uptake) is listed as “more potent”.

In the case of `COc1ccc(C(CN(C)C)C2(O)CCCCC2)cc1` (single isomer, unassigned) [S-enantiomer], the “potency as inhibitor of seratonin uptake, compared with other enantiomer” value (seratonin uptake) is given as “more potent”.

In the case of `CN(C)CC(c1ccc(O)cc1)C1(O)CCCCC1` (stereo not drawn) [O-desmethylvenlafaxine], the half-life (calculated) is listed as 11 h and the “potency compared with venlafaxine” value [1] is listed as “equally potent”.

In the case of `CC[C@H](C)C(=O)O[C@H]1C[C@H](O)C=C2C=C[C@H](C)[C@H](CC[C@@H](O)C[C@@H](O)CC(=O)O)[C@H]21` [Pravastatin], the “time to peak plasma levels” value [2] is listed as “about an hour and a half”.

In the case of `COc1ccc(C(CN(C)C)C2(O)CCCCC2)cc1` (stereo not drawn) [Venlafaxine], the “time to mean peak plasma concentrations” value (following single 25 to 150 mg doses) is given as “approximately 2.4 hours”.
